Assay results as given in US20070082339A1, “Methods and compositions for screening for HDAC inhibitory activity” (priority 2005, published 2007).
Square brackets hold non-standard residues; d marks the D form. Peptide text beside a SMILES is read from it. ξ: configuration not given here. Aoe(9ξ) = N[C@@H](CCCCCC(=O)C1CO1)C(=O)O; dPip = O=C(O)[C@H]1CCCCN1

Assays:
[1] = test system: RhoB promoter; experiment: RhoB promoter deletion/mutation constructs, induction by TPX; format: cell-based; conditions: following TPX treatment
Description: (§1) Furthermore, mutations in this CCAAT box reduced the ability of HDAC1 to confer repression of RhoB promoter activity. In addition, chromatin immunoprecipitation assays reveal that TPX increased the level of chromatin acetylation in the TPX-responsive region of the RhoB promoter containing the inverted CCAAT box. […] The global gene expression profiles of A549 cells following inhibition of HDAC with LAQ824 were determined by DNA microarray analysis.

[2] = test system: RhoB promoter; experiment: Chromatin immunoprecipitation assays; format: cell-based; conditions: region containing the inverted CCAAT box
Description: as §1

[3] = target: histone deacetylase 1 (Homo sapiens, UniProt Q13547); conditions: Tauton et al. Science 272:408-411 (1996); cited from earlier work
[4] = test system: BID; conditions: T cell leukemia cells; independently of caspase activity; cited from earlier work

histone deacetylase 1, sequence (Q13547 whole entry, species assumed): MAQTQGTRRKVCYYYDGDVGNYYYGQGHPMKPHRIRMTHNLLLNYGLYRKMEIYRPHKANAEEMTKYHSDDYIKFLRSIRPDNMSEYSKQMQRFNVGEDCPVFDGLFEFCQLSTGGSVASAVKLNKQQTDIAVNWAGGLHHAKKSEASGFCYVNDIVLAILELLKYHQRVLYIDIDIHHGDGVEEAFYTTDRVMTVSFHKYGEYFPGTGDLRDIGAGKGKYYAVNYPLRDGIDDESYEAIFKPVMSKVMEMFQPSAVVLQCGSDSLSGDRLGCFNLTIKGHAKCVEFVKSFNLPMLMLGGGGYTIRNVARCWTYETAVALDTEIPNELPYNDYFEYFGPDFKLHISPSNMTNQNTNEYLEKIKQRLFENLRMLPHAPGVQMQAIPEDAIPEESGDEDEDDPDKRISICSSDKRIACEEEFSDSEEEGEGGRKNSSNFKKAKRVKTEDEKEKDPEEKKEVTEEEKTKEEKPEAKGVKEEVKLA

SMILES | induction of expression from RhoB promoter deletion constructs [1] | level of chromatin acetylation in the TPX-responsive region of the RhoB promoter [2] | inhibition of histone deacetylase 1 [3] | BID cleavage [4]
O=C(CCCCC[C@@H]1NC(=O)[C@H]2CCCCN2C(=O)[C@H](Cc2ccccc2)NC(=O)[C@H](Cc2ccccc2)NC1=O)C1CO1 (stereo partly shown) [TPX, trapoxin A] (cyclo(FF[dPip][Aoe(9ξ)])) | induction of expression from all of these deletions is similar | increased | potently inhibit | –
O=C(CCCCCCC(=O)Nc1ccccc1)NO [SAHA] | – | – | – | cleaved
